Tests used:
Format in all cases: in vivo
[1] = tested on: Heliothis virescens (Tobacco Budworm); experiment: Heliothis virescens egg test on artificial diet; details: 96 h, 200 ppm by pipetting, eggs (0-24 h old) on artificial diet, egg mortality, larval mortality, growth regulation after 4 days
Protocol: Eggs (0-24 h old) were placed in 24-well microtiter plate on artificial diet and treated with test solutions at an application rate of 200 ppm by pipetting. After an incubation period of 4 days, samples were checked for egg mortality, larval mortality, and growth regulation. The following compounds gave at least 80% control of Heliothis virescen: • I-3, I-6, I-7, I-26, I-29, I-30, I-47, I-49, I-52, I-53, I-72, I-75, I-417, I-532, I-578, I-785, I-854, I-877, III-49, V-49, XII-49, XIV-26, XIV-49, XV-26, XVI-26, XVII-26, XXIV-2, XXIV-46, XXIV-90, XXIV-93, XXIV-94, XXV-2, XXV-26, XXV-49 and XXV-68.

[2] = tested on: Myzus persicae (Green Peach Aphid); experiment: Myzus persicae sunflower leaf disc spray test; details: foliar, 144 h, 200 ppm sprayed on sunflower leaf discs, aphid population of mixed ages, mortality after 6 DAT
Protocol: Sunflower leaf discs were placed on agar in a 24-well microtiter plate and sprayed with test solutions at an application rate of 200 ppm. After drying, the leaf discs were infested with an aphid population of mixed ages. After an incubation period of 6 DAT, samples were checked for mortality. The following compounds gave at least 80% control of Myzus persicae: • I-3, I-26, I-29, […], I-30, I-49, I-52, I-53, I-72, I-75, III-49, V-49, XXIV-46, XXIV-90 and XXIV-94.

[3] = tested on: Aedes aegypti (Yellow Fever Mosquito); experiment: Aedes aegypti larvae test in microtiter plates; details: 48 h, larvae (L2) with nutrition mixture, mortality and growth inhibition 2 days later
Source text: 10-15 Aedes larvae (L2) together with a nutrition mixture are placed in 96-well microtiter plates. Test solutions at an application rate of 2 ppm are pipetted into the wells. 2 days later, insects were checked for mortality and growth inhibition. The following compounds gave at least 80% control of Aedes aegypti • I-3, I-26, I-29, I-30, I-49, I-52, I-53, I-72, I-75, I-76, III-49, III-118, XIV-26, XV-26, XXIV-2, XXIV-46, XXIV-90, XXIV-93, XXIV-94 and XXV-68.

[4] = tested on: Spodoptera littoralis (Egyptian Cotton Leafworm); experiment: Spodoptera littoralis cotton leaf disc spray test; details: foliar, 72 h, 200 ppm sprayed on cotton leaf discs, 5 L1 larvae, mortality, repellent effect, feeding behaviour, growth regulation 3 days after treatment
Source text: Spodoptera littoralis (Egyptian Cotton Leafworm)
Cotton leaf discs were placed on agar in a 24-well microtiter plate and sprayed with test solutions at an application rate of 200 ppm. After drying, the leaf discs were infested with 5 L1 larvae. The samples were checked for mortality, repellent effect, feeding behaviour, and growth regulation 3 days after treatment (DAT). The following compounds gave at least 80% control of Spodoptera littoralis: • I-3, I-26, I-29, I-30, I-49, I-52, I-53, I-75, I-417, I-532, I-578, I-785, I-854, I-877, II-49, III-49, V-49, XII-49, XIV-26, XV-26, XXIV-2, XXIV-46, XXIV-90, XXIV-93, XXIV-94, XXV-26 and XXV-49.

Structure (SMILES)	pest or weed control at 200 ppm [1]	pest or weed control at 200 ppm [2]	pest or weed control at 2 ppm [3]	pest or weed control at 200 ppm [4]
O=C(Nc1ccccc1N1CCN(C/C=C/c2ccc(Cl)cc2)CC1)c1ccnc(Cl)c1 [Compound I-3, 2-chloro-N-(2-{4-[(E)-3-(4-chloro-phenyl)-allyl]-piperazin-1-yl}-phenyl)-isonicotinamide]	≥ 80%	≥ 80%	≥ 80%	≥ 80%
O=C(Nc1ccccc1N1CCN(C/C=C/c2ccc(C(F)(F)F)cc2)CC1)c1ccnc(Cl)c1 [Compound I-6, 2-chloro-N-(2-{4-[(E)-3-(4-trifluoromethyl-phenyl)-allyl]-piperazin-1-yl}-phenyl)-isonicotinamide]	≥ 80%			
O=C(Nc1ccccc1N1CCN(C/C=C/c2ccc(OC(F)(F)F)cc2)CC1)c1ccnc(Cl)c1 [Compound I-7, 2-chloro-N-(2-{4-[(E)-3-(4-trifluoromethoxy-phenyl)-allyl]-piperazin-1-yl}-phenyl)-isonicotinamide]	≥ 80%			
O=C(Nc1ccc(F)cc1N1CCN(C/C=C/c2ccc(Cl)cc2)CC1)c1ccnc(Cl)c1 [Compound I-26, 2-chloro-N-(4-fluoro-2-{4-[(E)-3-(4-chloro-phenyl)-allyl]-piperazin-1-yl}-phenyl)-isonicotinamide]	≥ 80%	≥ 80%	≥ 80%	≥ 80%
O=C(Nc1ccc(F)cc1N1CCN(C/C=C/c2ccc(C(F)(F)F)cc2)CC1)c1ccnc(Cl)c1 [Compound I-29, 2-chloro-N-(4-fluoro-2-{4-[(E)-3-(4-trifluoromethyl-phenyl)-allyl]-piperazin-1-yl}-phenyl)-isonicotinamide]	≥ 80%	≥ 80%	≥ 80%	≥ 80%
O=C(Nc1ccc(F)cc1N1CCN(C/C=C/c2ccc(OC(F)(F)F)cc2)CC1)c1ccnc(Cl)c1 [Compound I-30, 2-chloro-N-(4-fluoro-2-{4-[(E)-3-(4-trifluoromethoxy-phenyl)-allyl]-piperazin-1-yl}-phenyl)-isonicotinamide]	≥ 80%	≥ 80%	≥ 80%	≥ 80%
O=C(Nc1ccc(Cl)cc1N1CCN(Cc2ccc(Cl)cc2)CC1)c1ccnc(Cl)c1 [Compound I-47, 2-Chloro-N-{4-chloro-2-[4-(4-chloro-benzyl)-piperazin-1-yl}-phenyl)-isonicotinamide]	≥ 80%			
O=C(Nc1cc(F)ccc1N1CCN(C/C=C/c2ccc(Cl)cc2)CC1)c1ccnc(Cl)c1 [Compound I-72, 2-chloro-N-(5-fluoro-2-{4-[(E)-3-(4-chloro-phenyl)-allyl]-piperazin-1-yl}-phenyl)-isonicotinamide]	≥ 80%	≥ 80%	≥ 80%	
O=C(Nc1cc(F)ccc1N1CCN(C/C=C/c2ccc(OC(F)(F)F)cc2)CC1)c1ccnc(Cl)c1 [Compound I-76, 2-chloro-N-(5-fluoro-2-{4-[(E)-3-(4-trifluoromethoxy-phenyl)-allyl]-piperazin-1-yl)-phenyl)-isonicotinamide]			≥ 80%	
O=C(Nc1cccnc1N1CCN(C/C=C/c2ccc(Cl)cc2)CC1)c1ccnc(Cl)c1 [XXIV-2, 2-chloro-N-(2-{4-[(E)-3-(4-chloro-phenyl)-allyl]-piperazin-1-yl}-pyridin-3-yl)-isonicotinamide]	≥ 80%		≥ 80%	≥ 80%
O=C(Nc1cc(Cl)cnc1N1CCN(C/C=C/c2ccc(C(F)(F)F)cc2)CC1)c1ccnc(Cl)c1 [XXIV-93, 2-chloro-N-(5-chloro-2-{4-[(E)-3-(4-trifluoromethyl-phenyl)-allyl]-piperazin-1-yl}-pyridin-3-yl)-isonicotinamide]	≥ 80%		≥ 80%	≥ 80%

From patent publication US7807679B2, “Piperazine derivatives and their use in controlling pests” (Syngenta Crop Protection, Inc., priority 2004, dated 2010)
